For experiment [1], the target named is T1, HiBit-BRM fusion protein (Homo sapiens, UniProt P51531).
T1 construct: expressed in transfected cells
The experiment can be described thus: HiBiT-BRM cell-based degradation assay (Nano-Glo HiBiT Lytic Detection, 24 h). The settings on record: stable HeLa cell line expressing HiBiT-BRM, top dose 30 μM. As for the experimental part:
(§1) Procedure: A stable HeLa cell line expressing HiBiT-BRM was generated. On day 0, 5000 cells were seeded in 40 μL of media into each well of 384-well cell culture plates. On day 1, cells were treated with 120 nL DMSO or 120 nL of 3-fold serially DMSO-diluted compounds (10 points in duplicate with 30 μM as final top dose). Subsequently plates were incubated for 24 h in a standard tissue culture incubator and equilibrated at room temperature for 15 minutes. Nano-Glo HiBiT Lytic Detection System (Promega N3050) reagent was freshly prepared and 20 ul was added to each well. Upon addition of this LgBit-containing reagent, the HiBiT and LgBiT proteins associate to form the luminescent NanoBiT luciferase. The plates were shaken for 10 minutes at room temperature and the bioluminescence read using an EnVision plate reader (PerkinElmer).
(§2) The degradation % was calculated using the following formula: % degradation=100%−100%×(Lumsample−LumLC)/(LumHC−LumLC). DMSO treated cells are employed as High Control (HC) and 2 μM of a known BRM/BRG1 degrader standard treated cells are employed as Low Control (LC).

The target of experiment [2] is T2, HiBit-BRG1 fusion protein (Homo sapiens, UniProt P51532).
T2 construct: expressed in transfected cells
The experiment can be described thus: HiBiT-BRG1 cell-based degradation assay (Nano-Glo HiBiT Lytic Detection, 24 h). The following applies: stable HeLa cell line expressing HiBit-BRG1 and LgBit, top dose 30 μM, read-out: BRG1 HiBit Degradation Maximum (%). As for the experimental part:
as §1
For measurement of BRG1 degradation, a stable HeLa cell line expressing HiBit-BRG1 and LgBit was generated. The same protocol as above was then followed.
as §2
For orientation: HiBiT is a short tag that completes a luciferase, so light tracks the accessible tagged protein.

Where only a bound is given, the exact number is not on record here.

T2 sequence (P51532 whole entry, the tested form may be a part): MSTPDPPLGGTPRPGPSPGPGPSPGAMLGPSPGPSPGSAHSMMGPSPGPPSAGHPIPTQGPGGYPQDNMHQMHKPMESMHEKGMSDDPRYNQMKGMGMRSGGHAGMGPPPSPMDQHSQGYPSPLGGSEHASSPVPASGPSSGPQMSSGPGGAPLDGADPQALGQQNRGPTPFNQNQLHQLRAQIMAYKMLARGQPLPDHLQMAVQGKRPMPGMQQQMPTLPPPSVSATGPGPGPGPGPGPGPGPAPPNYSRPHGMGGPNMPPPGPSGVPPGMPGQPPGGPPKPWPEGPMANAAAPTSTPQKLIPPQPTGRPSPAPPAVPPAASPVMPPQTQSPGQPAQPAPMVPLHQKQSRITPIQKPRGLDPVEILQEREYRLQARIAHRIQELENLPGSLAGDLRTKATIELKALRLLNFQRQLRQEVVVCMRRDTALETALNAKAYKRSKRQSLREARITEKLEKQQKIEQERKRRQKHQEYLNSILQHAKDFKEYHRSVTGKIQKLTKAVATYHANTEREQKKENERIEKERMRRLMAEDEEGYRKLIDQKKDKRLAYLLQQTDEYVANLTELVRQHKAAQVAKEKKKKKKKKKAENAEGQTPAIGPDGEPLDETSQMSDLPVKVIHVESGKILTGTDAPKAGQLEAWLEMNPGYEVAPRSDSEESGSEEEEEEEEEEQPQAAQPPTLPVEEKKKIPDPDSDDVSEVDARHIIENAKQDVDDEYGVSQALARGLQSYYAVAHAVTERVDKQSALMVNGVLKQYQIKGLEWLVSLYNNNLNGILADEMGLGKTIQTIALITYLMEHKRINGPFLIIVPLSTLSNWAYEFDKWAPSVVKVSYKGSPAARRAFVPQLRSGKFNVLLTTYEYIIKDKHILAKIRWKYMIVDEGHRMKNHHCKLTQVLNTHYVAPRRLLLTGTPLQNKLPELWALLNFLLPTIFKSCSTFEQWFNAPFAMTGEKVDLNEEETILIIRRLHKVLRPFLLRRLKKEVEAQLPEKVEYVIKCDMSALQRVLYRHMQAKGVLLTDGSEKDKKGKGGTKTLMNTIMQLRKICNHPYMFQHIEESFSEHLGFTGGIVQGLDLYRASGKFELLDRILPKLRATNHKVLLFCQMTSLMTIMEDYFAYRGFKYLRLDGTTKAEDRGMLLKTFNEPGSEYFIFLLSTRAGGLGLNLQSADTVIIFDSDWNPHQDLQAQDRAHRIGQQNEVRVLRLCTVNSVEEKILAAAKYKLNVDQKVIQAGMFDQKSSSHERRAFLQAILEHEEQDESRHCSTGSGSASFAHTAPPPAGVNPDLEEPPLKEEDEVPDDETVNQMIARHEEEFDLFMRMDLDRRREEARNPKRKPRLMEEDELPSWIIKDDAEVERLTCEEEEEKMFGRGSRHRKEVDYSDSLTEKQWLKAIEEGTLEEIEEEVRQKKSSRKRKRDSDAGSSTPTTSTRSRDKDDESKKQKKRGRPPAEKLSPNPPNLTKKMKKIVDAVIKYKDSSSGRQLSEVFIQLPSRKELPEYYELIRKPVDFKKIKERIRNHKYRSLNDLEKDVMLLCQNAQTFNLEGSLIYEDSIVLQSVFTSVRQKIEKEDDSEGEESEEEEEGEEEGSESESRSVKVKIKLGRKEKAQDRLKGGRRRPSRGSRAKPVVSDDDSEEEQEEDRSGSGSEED
T1 sequence (P51531 whole entry, the tested form may be a part): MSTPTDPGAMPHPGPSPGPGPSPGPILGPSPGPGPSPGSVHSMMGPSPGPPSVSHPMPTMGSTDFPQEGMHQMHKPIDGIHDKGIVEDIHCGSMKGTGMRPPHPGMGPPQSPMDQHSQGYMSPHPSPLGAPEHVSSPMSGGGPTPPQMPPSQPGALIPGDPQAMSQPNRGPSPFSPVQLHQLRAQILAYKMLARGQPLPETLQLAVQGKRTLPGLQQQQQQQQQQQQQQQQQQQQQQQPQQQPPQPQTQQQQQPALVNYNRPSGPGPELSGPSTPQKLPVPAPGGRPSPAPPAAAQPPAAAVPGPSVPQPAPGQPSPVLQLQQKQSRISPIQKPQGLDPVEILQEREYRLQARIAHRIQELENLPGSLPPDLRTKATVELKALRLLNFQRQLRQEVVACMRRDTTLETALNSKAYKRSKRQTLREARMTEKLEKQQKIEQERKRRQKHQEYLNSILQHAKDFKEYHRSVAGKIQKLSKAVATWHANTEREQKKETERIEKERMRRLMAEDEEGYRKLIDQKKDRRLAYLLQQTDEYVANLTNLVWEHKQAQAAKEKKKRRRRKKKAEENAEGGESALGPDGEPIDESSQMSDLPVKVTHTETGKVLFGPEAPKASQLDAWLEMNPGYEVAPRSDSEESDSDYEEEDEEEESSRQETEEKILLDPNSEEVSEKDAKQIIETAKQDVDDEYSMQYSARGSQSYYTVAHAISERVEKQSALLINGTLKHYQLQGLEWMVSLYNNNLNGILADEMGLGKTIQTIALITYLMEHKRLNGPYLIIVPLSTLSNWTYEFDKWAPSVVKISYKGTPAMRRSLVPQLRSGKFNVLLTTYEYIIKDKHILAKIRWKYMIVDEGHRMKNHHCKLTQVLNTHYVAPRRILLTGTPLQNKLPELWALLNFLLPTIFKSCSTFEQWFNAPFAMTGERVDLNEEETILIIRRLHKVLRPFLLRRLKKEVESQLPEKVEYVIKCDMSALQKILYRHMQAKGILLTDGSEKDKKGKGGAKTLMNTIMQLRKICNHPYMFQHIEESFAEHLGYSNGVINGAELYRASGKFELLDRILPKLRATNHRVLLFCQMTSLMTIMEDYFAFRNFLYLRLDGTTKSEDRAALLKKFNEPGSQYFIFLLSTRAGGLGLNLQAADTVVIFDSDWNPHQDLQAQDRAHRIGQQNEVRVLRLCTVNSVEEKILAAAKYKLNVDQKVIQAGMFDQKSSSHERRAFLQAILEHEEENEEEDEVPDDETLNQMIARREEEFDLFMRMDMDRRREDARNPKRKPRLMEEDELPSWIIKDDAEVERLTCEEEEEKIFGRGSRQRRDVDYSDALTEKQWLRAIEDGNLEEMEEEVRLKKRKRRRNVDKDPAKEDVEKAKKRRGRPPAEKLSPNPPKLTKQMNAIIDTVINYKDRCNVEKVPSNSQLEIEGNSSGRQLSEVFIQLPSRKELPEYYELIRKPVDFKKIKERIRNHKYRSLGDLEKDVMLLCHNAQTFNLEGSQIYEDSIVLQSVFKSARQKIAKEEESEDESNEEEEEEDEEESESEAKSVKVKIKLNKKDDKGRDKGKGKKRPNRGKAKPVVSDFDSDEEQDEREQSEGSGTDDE

`Nc1nnc(-c2ccccc2O)cc1OCC12CC(C(=O)NCCCCS(=O)(=O)CCCNc3cccc4c3C(=O)N(C3CCC(=O)NC3=O)C4=O)(C1)C2` (stereo not drawn) [Compound 73, 3-(((3-amino-6-(2-hydroxyphenyl)pyridazin-4-yl)oxy)methyl)-N-(4-((3-((2-(2,6-dioxopiperidin-3-yl)-1,3-dioxoisoindolin-4-yl)amino)propyl)sulfonyl)butyl)bicyclo[1.1.1]pentane-1-carboxamide]: the “BRM HiBit Degradation Maximum (%)” value in experiment [1] is given as “C (“C” indicates maximum degradation < 50%)”. For the same molecule, in experiment [2], the Dmax was less than 50%.

As for `Nc1nnc(-c2ccccc2O)cc1OCC12CC(C(=O)NCCOc3cccc(OCCNc4ccc5c(c4)C(=O)N(C4CCC(=O)NC4=O)C5=O)c3)(C1)C2` (stereo not drawn) [Compound 82, 3-(((3-amino-6-(2-hydroxyphenyl)pyridazin-4-yl)oxy)methyl)-N-(2-(3-(2-((2-(2,6-dioxopiperidin-3-yl)-1,3-dioxoisoindolin-5-yl)amino)ethoxy)phenoxy)ethyl)bicyclo[1.1.1]pentane-1-carboxamide], the “BRM HiBit Degradation Maximum (%)” value in experiment [1] is given as “C (“C” indicates maximum degradation < 50%)”. In addition, the Dmax in experiment [2] is less than 50%.

For `Nc1nnc(-c2ccccc2O)cc1OCCC12CC(NC(=O)CCOCCOCCNc3ccc4c(c3)C(=O)N(C3CCC(=O)NC3=O)C4=O)(C1)C2` (stereo not drawn) [Compound 22, N-[3-(2-[[3-amino-6-(2-hydroxyphenyl)pyridazin-4-yl]oxy]ethyl)bicyclo[1.1.1]pentan-1-yl]-3-[2-(2-[[2-(2,6-dioxopiperidin-3-yl)-1,3-dioxoisoindol-5-yl]amino]ethoxy)ethoxy]propanamide], the “BRM HiBit Degradation Maximum (%)” value in experiment [1] is on record as “C (“C” indicates maximum degradation < 50%)”. For the same molecule, in experiment [2], the Dmax is less than 50%.

For `Cc1ncsc1-c1ccc(CNC(=O)[C@@H]2C[C@@H](O)CN2C(=O)[C@@H](NC(=O)CCCCCCCC(=O)NC23CC(CCOc4cc(-c5ccccc5O)nnc4N)(C2)C3)C(C)(C)C)cc1` [Compound 44, N1-(3-(2-((3-amino-6-(2-hydroxyphenyl)pyridazin-4-yl)oxy)ethyl)bicyclo[1.1.1]pentan-1-yl)-N9-((S)-1-((2S,4R)-4-hydroxy-2-((4-(4-methylthiazol-5-yl)benzyl)carbamoyl)pyrrolidin-1-yl)-3,3-dimethyl-1-oxobutan-2-yl)nonanediamide], in experiment [1], the “BRM HiBit Degradation Maximum (%)” value is “B (“B” indicates maximum degradation ≥ 50%)”. The Dmax in experiment [2] was less than 50%.

In the case of `Nc1nnc(-c2ccccc2O)cc1OCC12CC(C(=O)NCCCCCCCCNc3cccc4c3C(=O)N(C3CCC(=O)NC3=O)C4=O)(C1)C2` (stereo not drawn) [Compound 57, 3-(((3-amino-6-(2-hydroxyphenyl)pyridazin-4-yl)oxy)methyl)-N-(8-((2-(2,6-dioxopiperidin-3-yl)-1,3-dioxoisoindolin-4-yl)amino)octyl)bicyclo[1.1.1]pentane-1-carboxamide], the “BRM HiBit Degradation Maximum (%)” value in experiment [1] was “C (“C” indicates maximum degradation < 50%)”. Moreover, the Dmax in experiment [2] was less than 50%.

On to `Nc1nnc(-c2ccccc2O)cc1OCC12CC(C(=O)N3CCC4(CC3)CC(Oc3ccc5c(c3)C(=O)N(C3CCC(=O)NC3=O)C5=O)C4)(C1)C2` (stereo not drawn) [Compound 53, 5-((7-(3-(((3-amino-6-(2-hydroxyphenyl)pyridazin-4-yl)oxy)methyl)bicyclo[1.1.1]pentane-1-carbonyl)-7-azaspiro[3.5]nonan-2-yl)oxy)-2-(2,6-dioxopiperidin-3-yl)isoindoline-1,3-dione], for which the “BRM HiBit Degradation Maximum (%)” value in experiment [1] is on record as “C (“C” indicates maximum degradation < 50%)”. Besides, the Dmax in experiment [2] is less than 50%.

For the molecule `Cc1ncsc1-c1ccc(CNC(=O)[C@@H]2C[C@@H](O)CN2C(=O)[C@@H](NC(=O)CCCC(=O)NC23CC(CCOc4cc(-c5ccccc5O)nnc4N)(C2)C3)C(C)(C)C)cc1` [Compound 46, N1-(3-(2-((3-amino-6-(2-hydroxyphenyl)pyridazin-4-yl)oxy)ethyl)bicyclo[1.1.1]pentan-1-yl)-N5-((S)-1-((2S,4R)-4-hydroxy-2-((4-(4-methylthiazol-5-yl)benzyl)carbamoyl)pyrrolidin-1-yl)-3,3-dimethyl-1-oxobutan-2-yl)glutaramide], in experiment [1], the “BRM HiBit Degradation Maximum (%)” value is “B (“B” indicates maximum degradation ≥ 50%)”. The Dmax in experiment [2] is less than 50%.

Turning to `Nc1nnc(-c2ccccc2O)cc1OCC12CC(CNC(=O)C3CCN(CCOc4ccc5c(c4)C(=O)N(C4CCC(=O)NC4=O)C5=O)CC3)(C1)C2` (stereo not drawn) [Compound 15, N-((3-(((3-amino-6-(2-hydroxyphenyl)pyridazin-4-yl)oxy)methyl)bicyclo[1.1.1]pentan-1-yl)methyl)-1-(2-((2-(2,6-dioxopiperidin-3-yl)-1,3-dioxoisoindolin-5-yl)oxy)ethyl)piperidine-4-carboxamide], the “BRM HiBit Degradation Maximum (%)” value in experiment [1] is reported as “C (“C” indicates maximum degradation < 50%)”. In experiment [2], the Dmax is less than 50%.

In the case of `Nc1nnc(-c2ccccc2O)cc1OCC12CC(C(=O)NCCCCCCNc3ccc4c(c3)C(=O)N(C3CCC(=O)NC3=O)C4=O)(C1)C2` (stereo not drawn) [Compound 64, 3-(((3-amino-6-(2-hydroxyphenyl)pyridazin-4-yl)oxy)methyl)-N-(6-((2-(2,6-dioxopiperidin-3-yl)-1,3-dioxoisoindolin-5-yl)amino)hexyl)bicyclo[1.1.1]pentane-1-carboxamide], the “BRM HiBit Degradation Maximum (%)” value in experiment [1] is recorded as “C (“C” indicates maximum degradation < 50%)”. Moreover, in experiment [2], the Dmax was less than 50%.

In the case of `Cc1ncsc1-c1ccc(CNC(=O)[C@@H]2C[C@@H](O)CN2C(=O)[C@@H](NC(=O)COCCOCCOCCOCC(=O)NCC23CC(COc4cc(-c5ccccc5O)nnc4N)(C2)C3)C(C)(C)C)cc1` [Compound 36, N1-((3-(((3-amino-6-(2-hydroxyphenyl)pyridazin-4-yl)oxy)methyl)bicyclo[1.1.1]pentan-1-yl)methyl)-N14-((S)-1-((2S,4R)-4-hydroxy-2-((4-(4-methylthiazol-5-yl)benzyl)carbamoyl)pyrrolidin-1-yl)-3,3-dimethyl-1-oxobutan-2-yl)-3,6,9,12-tetraoxatetradecanediamide], the “BRM HiBit Degradation Maximum (%)” value in experiment [1] is on record as “C (“C” indicates maximum degradation < 50%)”. The Dmax in experiment [2] is less than 50%.

`Nc1nnc(-c2ccccc2O)cc1OCC12CC(C(=O)N3CC(COc4ccc5c(c4)C(=O)N(C4CCC(=O)NC4=O)C5=O)C3)(C1)C2` (stereo not drawn) [Compound 86, 5-((1-(3-(((3-amino-6-(2-hydroxyphenyl)pyridazin-4-yl)oxy)methyl)bicyclo[1.1.1]pentane-1-carbonyl)azetidin-3-yl)methoxy)-2-(2,6-dioxopiperidin-3-yl)isoindoline-1,3-dione]: the “BRM HiBit Degradation Maximum (%)” value in experiment [1] is “B (“B” indicates maximum degradation ≥ 50%)”. Further, in experiment [2], the Dmax is greater than 50%.

Turning to `Nc1nnc(-c2ccccc2O)cc1OCCC12CC(NC(=O)CCCCCCCCNc3ccc4c(c3)C(=O)N(C3CCC(=O)NC3=O)C4=O)(C1)C2` (stereo not drawn) [Compound 25, N-[3-(2-[[3-amino-6-(2-hydroxyphenyl)pyridazin-4-yl]oxy]ethyl)bicyclo[1.1.1]pentan-1-yl]-9-[[2-(2,6-dioxopiperidin-3-yl)-1,3-dioxoisoindol-5-yl]amino]nonanamide], the “BRM HiBit Degradation Maximum (%)” value in experiment [1] is on record as “C (“C” indicates maximum degradation < 50%)”. Moreover, the Dmax in experiment [2] was less than 50%.

With `Cc1ncsc1-c1ccc(CNC(=O)[C@@H]2C[C@@H](O)CN2C(=O)[C@@H](NC(=O)CCCCC(=O)NC23CC(CCOc4cc(-c5ccccc5O)nnc4N)(C2)C3)C(C)(C)C)cc1` [Compound 43, N1-(3-(2-((3-amino-6-(2-hydroxyphenyl)pyridazin-4-yl)oxy)ethyl)bicyclo[1.1.1]pentan-1-yl)-N6-((S)-1-((2S,4R)-4-hydroxy-2-((4-(4-methylthiazol-5-yl)benzyl)carbamoyl)pyrrolidin-1-yl)-3,3-dimethyl-1-oxobutan-2-yl)adipamide], the “BRM HiBit Degradation Maximum (%)” value in experiment [1] is “A (“A” indicates maximum degradation ≥ 75%)”. Further, in experiment [2], the Dmax is greater than 75%.

Turning to `Nc1nnc(-c2ccccc2O)cc1OCC12CC(CNC(=O)CCCCCCCCCCNc3ccc4c(c3)C(=O)N(C3CCC(=O)NC3=O)C4=O)(C1)C2` (stereo not drawn) [Compound 10, N-[[3-([[3-amino-6-(2-hydroxyphenyl)pyridazin-4-yl]oxy]methyl)bicyclo[1.1.1]pentan-1-yl]methyl]-11-[[2-(2,6-dioxopiperidin-3-yl)-1,3-dioxoisoindol-5-yl]amino]undecanamide], the “BRM HiBit Degradation Maximum (%)” value in experiment [1] is “C (“C” indicates maximum degradation < 50%)”. In addition, the Dmax in experiment [2] is less than 50%.

For `Nc1nnc(-c2ccccc2O)cc1OCC12CC(CNC(=O)CCCCCCCCNc3cccc4c3C(=O)N(C3CCC(=O)NC3=O)C4=O)(C1)C2` (stereo not drawn) [Compound 7, N-[[3-([[3-amino-6-(2-hydroxyphenyl)pyridazin-4-yl]oxy]methyl)bicyclo[1.1.1]pentan-1-yl]methyl]-9-[[2-(2,6-dioxopiperidin-3-yl)-1,3-dioxoisoindol-4-yl]amino]nonanamide], the “BRM HiBit Degradation Maximum (%)” value in experiment [1] is recorded as “C (“C” indicates maximum degradation < 50%)”. Besides, the Dmax in experiment [2] was less than 50%.
